Legend:
ER in MCF-7 cells = ER in MCF-7 cells (Homo sapiens (Human), UniProt P03372); assay: In-cell western (ICW) ER degradation assay in MCF-7 cells (Compounds A1-A70); assay type: cell-based; conditions: MCF-7 cells, 16 hrs treatment; for DC50: ER degradation, 0.02 to 300 nM, read-out: MCF7 ICW DC50; for Dmax: MCF7, maximal ER degradation, read-out: MCF7 ICW Dmax (%)
Description: (§1) ERa degradative activity of compounds can be assessed in MCF-7 and T47D Cells. MCF-7 and T47D cell are seeded and are subsequently treated with the compounds at certain concentrations (e.g., 0.02 to 300 nM). DMSO can be used as vehicle control. Cells are fixed and are blocked with Intercept (PBS) Blocking Buffer (e.g., Li—COR, Odyssey Blocking Buffer), and are stained with ER (e.g., 1:500, Cell signaling) primary antibody for overnight at cold room. Secondary Antibody (e.g., IRDye 800CW Goat anti-Rabbit IgG) and CellTag 700 Stain are added in Intercept (PBS) Blocking Buffer. Finally, cell plate is placed in incubator to dry. Image and signal are captured on Odyssey® DLx Imaging System.
(§2) Day 3: After 16 hrs of compounds treatment, cells were fixed by 4% PFA and permeabilized with elution buffer (0.1% Triton X-100 in 1% PBS Solution). Subsequently, cells were blocked with Intercept (PBS) Blocking Buffer (Li—COR, Odyssey Blocking Buffer), and were stained with ER (1:500, Cell signaling) primary antibody for overnight at cold room.
(§3) Day 4: Remove the buffer, add IRDye 800CW Goat anti-Rabbit IgG Secondary Antibody (1:2000) and CellTag 700 Stain (1:500) in Intercept (PBS) Blocking Buffer. Finally, cell plate is placed in incubator to dry. Image and signal were captured on Odyssey® DLx Imaging System.

CRBN/DDB1 = CRBN/DDB1 (Homo sapiens (Human), UniProt Q96SW2); assay type: binding; conditions: His tagged CRBN+DDB-DLS7+CXU4, Cy5-labeled Thalidomide probe, one hour incubation; read-out: CRBN HTRF IC50
Sequence of CRBN/DDB1 (Q96SW2 whole entry): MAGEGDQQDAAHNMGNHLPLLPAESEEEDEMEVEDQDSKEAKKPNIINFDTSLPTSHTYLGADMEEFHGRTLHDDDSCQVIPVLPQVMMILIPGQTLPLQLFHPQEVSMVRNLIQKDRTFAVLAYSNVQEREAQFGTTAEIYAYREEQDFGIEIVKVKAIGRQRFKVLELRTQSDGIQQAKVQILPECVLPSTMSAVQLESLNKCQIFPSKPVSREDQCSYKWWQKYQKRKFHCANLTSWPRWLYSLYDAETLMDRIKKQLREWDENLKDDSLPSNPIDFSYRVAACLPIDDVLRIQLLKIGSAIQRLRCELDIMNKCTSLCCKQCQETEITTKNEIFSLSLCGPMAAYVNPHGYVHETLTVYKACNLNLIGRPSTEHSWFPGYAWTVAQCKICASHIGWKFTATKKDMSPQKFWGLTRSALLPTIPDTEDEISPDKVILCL
Sequence of CRBN/DDB1 (Q16531 whole entry partner): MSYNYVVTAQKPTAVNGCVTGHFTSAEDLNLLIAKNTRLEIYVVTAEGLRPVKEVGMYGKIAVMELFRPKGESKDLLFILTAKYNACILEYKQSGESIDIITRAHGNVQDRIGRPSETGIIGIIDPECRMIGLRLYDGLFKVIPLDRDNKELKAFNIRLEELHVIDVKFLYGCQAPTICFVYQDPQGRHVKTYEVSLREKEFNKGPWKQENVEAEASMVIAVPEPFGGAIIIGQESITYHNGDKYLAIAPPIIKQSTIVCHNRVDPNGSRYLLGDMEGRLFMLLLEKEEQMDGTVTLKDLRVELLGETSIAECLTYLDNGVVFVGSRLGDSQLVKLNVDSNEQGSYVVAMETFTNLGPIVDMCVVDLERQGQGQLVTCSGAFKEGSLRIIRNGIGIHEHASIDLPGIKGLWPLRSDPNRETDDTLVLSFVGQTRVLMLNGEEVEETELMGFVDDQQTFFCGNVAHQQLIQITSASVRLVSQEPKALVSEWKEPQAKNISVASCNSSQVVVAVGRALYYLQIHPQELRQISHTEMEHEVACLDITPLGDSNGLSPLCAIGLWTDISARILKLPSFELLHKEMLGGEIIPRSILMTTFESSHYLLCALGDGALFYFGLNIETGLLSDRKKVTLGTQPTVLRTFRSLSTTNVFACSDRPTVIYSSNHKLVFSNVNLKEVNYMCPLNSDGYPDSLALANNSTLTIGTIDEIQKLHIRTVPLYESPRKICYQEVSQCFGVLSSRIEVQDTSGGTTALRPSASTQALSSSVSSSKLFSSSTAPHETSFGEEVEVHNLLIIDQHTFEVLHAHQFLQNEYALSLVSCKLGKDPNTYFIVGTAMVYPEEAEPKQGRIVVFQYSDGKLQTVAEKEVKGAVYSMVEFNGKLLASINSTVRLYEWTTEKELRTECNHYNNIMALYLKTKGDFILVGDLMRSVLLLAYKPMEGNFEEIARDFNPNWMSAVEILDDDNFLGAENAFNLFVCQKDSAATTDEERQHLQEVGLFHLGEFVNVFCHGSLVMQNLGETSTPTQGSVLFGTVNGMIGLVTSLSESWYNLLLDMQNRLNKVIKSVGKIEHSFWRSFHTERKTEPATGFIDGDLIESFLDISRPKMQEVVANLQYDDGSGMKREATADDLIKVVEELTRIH
Description: The binding potency was determined using H-TRF assay technology (Perkin Elmer). Compounds were serially diluted in DMSO and 0.2 μL volume was transferred to white 384-well plate.

ER in T47D cells = ER in T47D cells (Homo sapiens (Human), UniProt P03372); assay: In-cell western (ICW) ER degradation assay in T47D cells (Compounds A1-A70); assay type: cell-based; conditions: T47D cells, 16 hrs treatment; for DC50: ER degradation, 0.02 to 300 nM; for Dmax: T47D, maximal ER degradation, read-out: T47D ICW Dmax (%)
Sequence of ER in T47D cells (P03372 whole entry): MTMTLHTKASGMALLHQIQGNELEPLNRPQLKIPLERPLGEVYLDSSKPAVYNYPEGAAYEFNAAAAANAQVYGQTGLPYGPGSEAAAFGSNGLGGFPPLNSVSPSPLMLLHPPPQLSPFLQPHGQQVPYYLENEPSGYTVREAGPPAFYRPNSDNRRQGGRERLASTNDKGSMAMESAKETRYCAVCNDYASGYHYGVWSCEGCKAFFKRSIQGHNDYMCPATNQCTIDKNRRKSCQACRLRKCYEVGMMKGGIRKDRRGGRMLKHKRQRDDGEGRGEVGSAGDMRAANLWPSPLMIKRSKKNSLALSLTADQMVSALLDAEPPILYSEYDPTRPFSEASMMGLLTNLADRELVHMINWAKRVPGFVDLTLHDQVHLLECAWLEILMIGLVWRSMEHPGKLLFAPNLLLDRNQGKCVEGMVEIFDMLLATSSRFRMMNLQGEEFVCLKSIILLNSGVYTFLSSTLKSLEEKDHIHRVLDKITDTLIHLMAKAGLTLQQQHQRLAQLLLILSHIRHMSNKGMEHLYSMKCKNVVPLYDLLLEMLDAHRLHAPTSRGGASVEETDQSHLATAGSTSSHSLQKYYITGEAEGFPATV
Description: as §1, §2, §3

Sequence of ER in MCF-7 cells (P03372 whole entry): as above

| SMILES | DC50 (ER in MCF-7 cells) [nM] | Dmax (ER in MCF-7 cells) [%] | IC50 (CRBN/DDB1) [nM] | DC50 (ER in T47D cells) [nM] | Dmax (ER in T47D cells) [%] |
| --- | --- | --- | --- | --- | --- |
| C[C@@H]1Cc2c([nH]c3ccccc23)[C@@H](c2cnc(N3CCC(CN4CCN5c6ccc7c(c6OC[C@@H]5C4)CN(C4CCC(=O)NC4=O)C7=O)CC3)nc2)N1CC(F)F (stereo partly drawn) [Compound A5, 3-((S)-7-((1-(5-((1R,3R)-2-(2,2-difluoroethyl)-3-methyl-2,3,4,9-tetrahydro-1H-pyrido[3,4-b]indol-1-yl)pyrimidin-2-yl)piperidin-4-yl)methyl)-1-oxo-1,3,5,5a,6,7,8,9-octahydro-2H-pyrazino[1′,2′:4,5]oxazino[2,3-e]isoindol-2-yl)piperidine-2,6-dione] | 1 to 10 | 50 to 75 | 50 to 500 |  |  |
| C[C@@H]1Cc2c([nH]c3ccccc23)[C@@H](c2cnc(N3CCC4(CCC(CN5CCN6c7cc8c(cc7OC[C@@H]6C5)C(=O)N([C@H]5CCC(=O)NC5=O)C8)CC4)CC3)nc2)N1CC(C)(C)F [Compound A9, (S)-3-((S)-3-((3-(5-((1R,3R)-2-(2-fluoro-2-methylpropyl)-3-methyl-2,3,4,9-tetrahydro-1H-pyrido[3,4-b]indol-1-yl)pyrimidin-2-yl)-3-azaspiro[5.5]undecan-9-yl)methyl)-8-oxo-1,2,3,4,4a,5,8,10-octahydro-9H-pyrazino[1′,2′:4,5][1,4]oxazino[2,3-f]isoindol-9-yl)piperidine-2,6-dione] | < 1 | 25 to 50 | > 5000 |  |  |
| C[C@@H]1Cc2c([nH]c3ccccc23)[C@@H](c2ccc(N3CCC4(CC3)CC(CN3CCN5c6cc7c(cc6OC[C@@H]5C3)C(=O)N([C@H]3CCC(=O)NC3=O)C7)C4)nc2)N1CC(F)F [Compound A11, (S)-3-((S)-3-((7-(5-((1R,3R)-2-(2,2-difluoroethyl)-3-methyl-2,3,4,9-tetrahydro-1H-pyrido[3,4-b]indol-1-yl)pyridin-2-yl)-7-azaspiro[3.5]nonan-2-yl)methyl)-8-oxo-1,2,3,4,4a,5,8,10-octahydro-9H-pyrazino[1′,2′:4,5][1,4]oxazino[2,3-f]isoindol-9-yl)piperidine-2,6-dione] | 1 to 10 | 50 to 75 | 500 to 5000 |  |  |
| CS(=O)(=O)N1CCc2c([nH]c3ccccc23)[C@@H]1c1c(F)cc(N2CCC3(CCN(C(=O)CN4Cc5cc6c(cc5C4)C(=O)N(C4CCC(=O)NC4=O)C6=O)CC3)CC2)cc1F (stereo partly drawn) [Compound A20, 6-(2-(9-(3,5-difluoro-4-((S)-2-(methylsulfonyl)-2,3,4,9-tetrahydro-1H-pyrido[3,4-b]indol-1-yl)phenyl)-3,9-diazaspiro[5.5]undecan-3-yl)-2-oxoethyl)-2-(2,6-dioxopiperidin-3-yl)-6,7-dihydropyrrolo[3,4-f]isoindole-1,3(2H,5H)-dione] |  |  | > 5000 |  |  |
| CS(=O)(=O)N1CCc2c([nH]c3ccccc23)[C@H]1c1c(F)cc(N2CCC3(CCN(C(=O)CN4Cc5cc6c(cc5C4)C(=O)N(C4CCC(=O)NC4=O)C6=O)CC3)CC2)cc1F (stereo partly drawn) [Compound A21, 6-(2-(9-(3,5-difluoro-4-((R)-2-(methylsulfonyl)-2,3,4,9-tetrahydro-1H-pyrido[3,4-b]indol-1-yl)phenyl)-3,9-diazaspiro[5.5]undecan-3-yl)-2-oxoethyl)-2-(2,6-dioxopiperidin-3-yl)-6,7-dihydropyrrolo[3,4-f]isoindole-1,3(2H,5H)-dione] |  |  | > 5000 |  |  |
| C[C@@H]1Cc2c([nH]c3ccccc23)[C@@H](c2ccc(N3CCC4(CC3)CC(CN3CCN5c6ccc7c(c6OC[C@@H]5C3)CN([C@H]3CCC(=O)NC3=O)C7=O)C4)nc2)N1CC(F)F [Compound A24, (S)-3-((S)-7-((7-(5-((1R,3R)-2-(2,2-difluoroethyl)-3-methyl-2,3,4,9-tetrahydro-1H-pyrido[3,4-b]indol-1-yl)pyridin-2-yl)-7-azaspiro[3.5]nonan-2-yl)methyl)-1-oxo-1,3,5,5a,6,7,8,9-octahydro-2H-pyrazino[1′,2′:4,5][1,4]oxazino[2,3-e]isoindol-2-yl)piperidine-2,6-dione] | 10 to 100 | 25 to 50 | < 50 |  |  |
| C[C@@H]1Cc2c([nH]c3ccccc23)[C@@H](c2cnc(N3CCC4(CC3)CC(CN3CCC5(CC3)COc3cc6c(cc35)CN(C3CCC(=O)NC3=O)C6=O)C4)nc2)N1CC(F)F (stereo partly drawn) [Compound A26, 3-(1′-((7-(5-((1R,3R)-2-(2,2-difluoroethyl)-3-methyl-2,3,4,9-tetrahydro-1H-pyrido[3,4-b]indol-1-yl)pyrimidin-2-yl)-7-azaspiro[3.5]nonan-2-yl)methyl)-7-oxo-5,7-dihydro-2H,6H-spiro[furo[2,3-f]isoindole-3,4′-piperidin]-6-yl)piperidine-2,6-dione] |  |  | 500 to 5000 |  |  |
| C[C@@H]1Cc2c([nH]c3ccccc23)[C@@H](c2cnc(N3CCN(CC4CCN(c5ccc(N6CCC(=O)NC6=O)cc5)CC4)CC3)nc2)N1CC(F)F [Compound A38, 1-(4-(4-((4-(5-((1R,3R)-2-(2,2-difluoroethyl)-3-methyl-2,3,4,9-tetrahydro-1H-pyrido[3,4-b]indol-1-yl)pyrimidin-2-yl)piperazin-1-yl)methyl)piperidin-1-yl)phenyl)dihydropyrimidine-2,4(1H,3H)-dione] |  |  | 500 to 5000 | 1 to 10 | < 25 |
| COc1cc(N2CCC(CN3CCC(c4ccc(N[C@H]5CCC(=O)NC5=O)c(F)c4)CC3)CC2)ccc1[C@@H]1c2[nH]c3ccccc3c2C[C@@H](C)N1CC(F)F [Compound A40, (S)-3-((4-(1-((1-(4-((1R,3R)-2-(2,2-difluoroethyl)-3-methyl-2,3,4,9-tetrahydro-1H-pyrido[3,4-b]indol-1-yl)-3-methoxyphenyl)piperidin-4-yl)methyl)piperidin-4-yl)-2-fluorophenyl)amino)piperidine-2,6-dione] |  |  | > 5000 | < 1 | 25 to 50 |
| COc1cc(N2CCC(CN3CCN(c4ccc(NC5CCC(=O)NC5=O)c(F)c4)CC3)CC2)ccc1[C@@H]1c2[nH]c3ccccc3c2C[C@@H](C)N1CC(F)F (stereo partly drawn) [Compound A41, 3-((4-(4-((1-(4-((1R,3R)-2-(2,2-difluoroethyl)-3-methyl-2,3,4,9-tetrahydro-1H-pyrido[3,4-b]indol-1-yl)-3-methoxyphenyl)piperidin-4-yl)methyl)piperazin-1-yl)-2-fluorophenyl)amino)piperidine-2,6-dione] |  |  | 500 to 5000 | 10 to 100 | 25 to 50 |
| COc1cc(N2CCC(CN3CCN(c4ccc(C5CCC(=O)NC5=O)cc4)CC3)CC2)ccc1[C@@H]1c2[nH]c3ccccc3c2C[C@@H](C)N1CC(F)F (stereo partly drawn) [Compound A46, 3-(4-(4-((1-(4-((1R,3R)-2-(2,2-difluoroethyl)-3-methyl-2,3,4,9-tetrahydro-1H-pyrido[3,4-b]indol-1-yl)-3-methoxyphenyl)piperidin-4-yl)methyl)piperazin-1-yl)phenyl)piperidine-2,6-dione] |  |  | 50 to 500 | < 1 | 25 to 50 |
| COc1cc(N2CCC(CN3CCN(c4cnc(C(=O)NC5CCC(=O)NC5=O)cc4OC)CC3)CC2)ccc1[C@@H]1c2[nH]c3ccccc3c2C[C@@H](C)N1CC(F)F (stereo partly drawn) [Compound A56, 5-(4-((1-(4-((1R,3R)-2-(2,2-difluoroethyl)-3-methyl-2,3,4,9-tetrahydro-1H-pyrido[3,4-b]indol-1-yl)-3-methoxyphenyl)piperidin-4-yl)methyl)piperazin-1-yl)-N-(2,6-dioxopiperidin-3-yl)-4-methoxypicolinamide] | < 1 | 50 to 75 | > 5000 |  |  |

From patent publication US20260007681A1, “INDOLE DERIVATIVES AS ESTROGEN RECEPTOR DEGRADERS” (REGENTS OF THE UNIVERSITY OF MICHIGAN, priority 2022, published 2026)
